According to patent US8598365B2, “Herbicides” (Syngenta Limited, priority 2007, dated 2013):

Columns and labels:
Type in all cases: in vivo
[1] = test system: Alopecurus myosuroides (ALOMY); test: Example B pre-emergence herbicidal activity; conditions: 312 h, rate 250 g/ha, evaluated after 13 days, read-out: Pre-Emergence Activity ALOMY (100=total damage to plant; 0=no damage to plant)
Experimental: (§1) Seeds of a variety of test species were sown in standard soil in pots. After cultivation for one day (pre-emergence) or after 8 days cultivation (post-emergence) under controlled conditions in a glasshouse (at 24/16° C., day/night; 14 hours light; 65% humidity), the plants were sprayed with an aqueous spray solution derived from the formulation of the technical active ingredient in acetone/water (50:50) solution containing 0.5% Tween 20 (polyoxyethelyene sorbitan monolaurate, CAS RN 9005-64-5).
(§2) The test plants were then grown in a glasshouse under controlled conditions in a glasshouse (at 24/16° C., day/night; 14 hours light; 65% humidity) and watered twice daily. After 13 days for pre and post-emergence, the test was evaluated (100=total damage to plant; 0=no damage to plant).
(§3) Alopecurus myosuroides (ALOMY), Avena fatua (AVEFA), Setaria faberi (SETFA), Echinochloa crus-galli (ECHCG), Solanum nigrum (SOLNI) and Amaranthus retoflexus (AMARE)

[2] = test system: Amaranthus retoflexus (AMARE); test: Example B pre-emergence herbicidal activity; conditions: Amaranthus retroflexus, 312 h, rate 250 g/ha, evaluated after 13 days, read-out: Pre-Emergence Activity AMARE (100=total damage to plant; 0=no damage to plant)
Experimental: as §1, §2, §3

Avena fatua (AVEFA) [3] = test: Example B pre-emergence herbicidal activity; conditions: 312 h, rate 250 g/ha, evaluated after 13 days, read-out: Pre-Emergence Activity AVEFA (100=total damage to plant; 0=no damage to plant)
Experimental: as §1, §2, §3

[4] = test system: Echinochloa crus-galli (ECHCG); test: Example B pre-emergence herbicidal activity; conditions: 312 h, rate 250 g/ha, evaluated after 13 days, read-out: Pre-Emergence Activity ECHCG (100=total damage to plant; 0=no damage to plant)
Experimental: as §1, §2, §3

Setaria faberi (SETFA) [5] = test: Example B pre-emergence herbicidal activity; conditions: 312 h, rate 250 g/ha, evaluated after 13 days, read-out: Pre-Emergence Activity SETFA (100=total damage to plant; 0=no damage to plant)
Experimental: as §1, §2, §3

[6] = test system: Alopecurus myosuroides (ALOMY); test: Example B post-emergence herbicidal activity; conditions: 312 h, rate 250 g/ha, evaluated after 13 days, read-out: Post-emergence activity ALOMY (100=total damage to plant; 0=no damage to plant)
Experimental: as §1, §2, §3

[7] = test system: Amaranthus retoflexus (AMARE); test: Example B post-emergence herbicidal activity; conditions: Amaranthus retroflexus, 312 h, rate 250 g/ha, evaluated after 13 days, read-out: Post-emergence activity AMARE (100=total damage to plant; 0=no damage to plant)
Experimental: as §1, §2, §3

Avena fatua (AVEFA) [8] = test: Example B post-emergence herbicidal activity; conditions: 312 h, rate 250 g/ha, evaluated after 13 days, read-out: Post-emergence activity AVEFA (100=total damage to plant; 0=no damage to plant)
Experimental: as §1, §2, §3

[9] = test system: Echinochloa crus-galli (ECHCG); test: Example B post-emergence herbicidal activity; conditions: 312 h, rate 250 g/ha, evaluated after 13 days, read-out: Post-emergence activity ECHCG (100=total damage to plant; 0=no damage to plant)
Experimental: as §1, §2, §3

Setaria faberi (SETFA) [10] = test: Example B post-emergence herbicidal activity; conditions: 312 h, rate 250 g/ha, evaluated after 13 days, read-out: Post-emergence activity SETFA (100=total damage to plant; 0=no damage to plant)
Experimental: as §1, §2, §3

| SMILES | pest or weed control at 250 g/ha [1] | pest or weed control at 250 g/ha [2] | pest or weed control at 250 g/ha (Avena fatua (AVEFA) [3]) | pest or weed control at 250 g/ha [4] | pest or weed control at 250 g/ha (Setaria faberi (SETFA) [5]) | pest or weed control at 250 g/ha [6] | pest or weed control at 250 g/ha [7] | pest or weed control at 250 g/ha (Avena fatua (AVEFA) [8]) | pest or weed control at 250 g/ha [9] | pest or weed control at 250 g/ha (Setaria faberi (SETFA) [10]) |
| --- | --- | --- | --- | --- | --- | --- | --- | --- | --- | --- |
| Cc1sc(-c2ccc(Br)cn2)nc1C1=C(OC(=O)C2CC2)[C@@H]2CC[C@@H](C2)C1=O [Compound P7] | 30% | 0% | 0% | 20% | 90% | 90% | 0% | 90% | 100% | 100% |
| Cc1sc(-c2ccc(Br)cn2)nc1C1=C(OC(=O)C(C)(C)C)[C@@H]2CC[C@@H](C2)C1=O [Compound P8] | 20% | 0% | 0% | 50% | 100% | 70% | 0% | 80% | 0% | 100% |
| CCc1sc(-c2ccc(Cl)cc2)nc1C1=C(OC(=C(C#N)C#N)C(F)(F)F)[C@@H]2CC[C@@H](C2)C1=O [Compound P9] | 90% | 0% | 100% | 90% | 100% | 100% | 0% | 100% | 100% | 100% |
| CCOC(=O)COC1=C(c2sc(-c3ccc(Cl)cc3)nc2C)C(=O)[C@H]2CC[C@@H]1C2 [Compound P11] | 0% | 0% | 0% | 0% | 80% | 20% | 0% | 20% | 80% | 80% |
| CC(=O)OC1=C(c2nc(-c3ccc(Br)cc3C)sc2C)C(=O)[C@H]2CC[C@@H]1C2 [Compound P12] | 30% | 0% | 20% | 20% | 100% | 100% | 0% | 90% | 100% | 100% |
| Cc1cc(Br)ccc1-c1nc(C2=C(OC(=O)C3CC3)[C@@H]3CC[C@@H](C3)C2=O)c(C)s1 [Compound P13] | 70% | 0% | 100% | 50% | 100% | 90% | 0% | 90% | 100% | 100% |
| Cc1cc(Br)ccc1-c1nc(C2=C(OC(=O)C(C)(C)C)[C@@H]3CC[C@@H](C3)C2=O)c(C)s1 [Compound P14] | 70% | 0% | 100% | 100% | 100% | 100% | 0% | 90% | 100% | 100% |
| CCc1sc(-c2ccc(C)cc2)nc1C1=C(OC(C)=O)[C@H]2CC[C@H](C2)C1=O [Compound P15] | 90% | 0% | 60% | 100% | 90% | 100% | 0% | 90% | 100% | 100% |
